Results published in article PMC10064817 (Pharmaceutical Biology, 2023).
Like-named read-outs stand apart in the source and are kept apart here.

Experiments:
SARS-CoV-2 infection = test system: SARS-CoV-2 infection; design: method as in Ansems et al. [2021]; details: hospitalized patients with SARS-CoV-2 infection; ref Ansems et al. [2021]; cited from earlier work
[1] = test system: SARS-CoV-2-infected Vero E6 cells; design: method as in Kanjanasirirat et al. [2020]; details: ref Kanjanasirirat et al. [2020]; cited from earlier work
COVID-19 = test system: COVID-19; design: method as in Jayk Bernal et al. [2021]; details: ref Jayk Bernal et al. [2021]; cited from earlier work
[2] = test system: SARS-CoV-2-infected Calu-3 cells; design: method as in Sa-ngiamsuntorn et al. [2021]; details: ref Sa-ngiamsuntorn et al. [2021]; cited from earlier work
[3] = format: physicochemical; details: 12 h
Procedure: The LCMS system was operated using a LCMS-8060 (Shimadzu, Kyoto, Japan) equipped with a C18 reversed phase column, Synergi 4 µm Fusion-RP 80 Å 50 × 2 mm (Phenomenex, Torrance, CA). The column oven was maintained at 40 °C and operated using a mobile phase consisting of 0.2% formic acid in water (solvent A) and 100% methanol (solvent B), with a gradient system (0–0.5 min 10% B, 0.5–1.5 min increase to 90% B, 1.5–2.5 min 90% B, 2.5–3.5 min decrease to 10% B, 3.5–4.5 min 10% B), at a flow rate of 0.5 mL/min, with a 10 μL injection volume. The mass spectrometer was a triple quadrupole with negative mode electrospray ionization (ESI). […] All the operations, acquisition and analysis of data were controlled by LabSolution software version 5.86 (Shimadzu, Japan). The LCMS method was validated for accuracy, precision, recovery and stability according to the guidance on bioanalytical method validation recommended by the FDA (USFDA [2018]).

[4] = predicted; ref PubChem [2004]; cited from earlier work
in vivo = details: male, beagle, dog
[5] = rat, in vivo, po; cited from earlier work
[6] = dog, in vivo, iv, 1 mg/kg

SMILES: CCC(CC)COC(=O)[C@H](C)N[P@](=O)(OC[C@H]1O[C@@](C#N)(c2ccc3c(N)ncnn23)[C@H](O)[C@@H]1O)Oc1ccccc1 [remdesivir, reference compound]
- Effect on all-cause mortality at up to day 28 (SARS-CoV-2 infection): little or no effect
- IC50 [1]: 2710 nM

SMILES: CC(C)C(=O)OC[C@H]1O[C@@H](n2ccc(NO)nc2=O)[C@H](O)[C@@H]1O [molnupiravir]
- Reduced rate of hospitalization or death compared to placebo (COVID-19): 30%

SMILES: C=C1CC[C@@H]2[C@](C)(CO)[C@H](O)CC[C@@]2(C)[C@@H]1C/C=C1/C(=O)OC[C@H]1O [andrographolide]
- IC50 [2]: 34 nM

SMILES: COc1cc(O)c(C(=O)[C@@H]2[C@H](CC=C(C)C)C(C)=CC[C@H]2c2ccccc2)c(O)c1 [Panduratin A, panduratin A]
- Stability, Accuracy (%RE) ([3]; 10 µg/L): 9.75 %RE
- Stability, mean concentration found ([3]; 10 µg/L): 10.98 µg/L
- Stability, Accuracy (%RE) ([3]; 150 µg/L): 4.48 %RE
- Stability, mean concentration found ([3]; 150 µg/L): 156.72 µg/L
- Stability, Accuracy (%RE) ([3]; 600 µg/L): 4.76 %RE
- Stability, mean concentration found ([3]; 600 µg/L): 628.57 µg/L
- Hydrogen bond acceptors [4]: four
- Hydrogen bond donors [4]: two
- half-life (in vivo): 10 to 15 h
- AUC(0-inf) (in vivo; iv, 1 mg/kg): 209 µg·h/mL
- AUC(0-t) (in vivo; iv, 1 mg/kg): 181 µg·h/mL
- MRT (in vivo; iv, 1 mg/kg): 23.9 ± 3.27 h
- Vd (in vivo; iv, 1 mg/kg): 0.1 ± 0.01 L/kg
- clearance (in vivo; iv, 1 mg/kg): 0.167 mL/min/kg
- concentration at 72 h (in vivo; iv, 1 mg/kg): 0.1 to 0.2 µg/mL
- half-life (in vivo; iv, 1 mg/kg): 15.2 h
- Cmax (in vivo; iv, 1 mg/kg, Cmax): ~100 µg/mL
- Tissue distribution [5]: distribution of panduratin A to various tissues, including skin, lung, heart, gum, liver, spleen, kidney and brain
- ALT [6]: 44 ± 7 U/L
- AST [6]: 24 ± 6 U/L
- Alkaline phosphatase [6]: 35 ± 4 U/L
- Blood urea nitrogen [6]: 11.9 ± 1.6 mg/dL
- Creatinine [6]: 0.6 ± 0.1 mg/dL
- Haemoglobin [6]: 14.2 ± 1.3 g/dL
- Physical appearance [6]: Normal
- Platelet [6]: 241 ± 44 x 10^3/µL
- Red blood cell [6]: 6.03 ± 0.66 x 10^6/µL
- White blood cell [6]: 7.83 ± 1.09 x 10^3/µL
- IC50 [1]: 810 nM
